{
  "source": "patent US10959433B2",
  "about": "“Use of cationic steroidal antimicrobials for sporicidal activity” (BRIGHAM YOUNG UNIVERSITY, priority 2017, dated 2021)",
  "key": {"[1]": {"tested_on": "vegetative form of B. subtilis", "experiment": "Viability (CFU) assay, vegetative form", "type": "cell-based, Bacillus subtilis ATCC 6051", "settings": "RT, incubation time 240 min", "experimental": "(§1) A viability assay of bacterial spores in the presence of a CSA compound was performed according to the protocol presented by Ghosh and Setlow. Ghosh, S. and P. Setlow, Isolation and characterization of superdormant spores of Bacillus species. J Bacteriol, 2009. 191(6): p. 1787-97. Spore suspensions in PBS were brought to […] and incubated with various concentrations of CSA-13. To evaluate the effect of treatment time on the killing properties of the antibiotic, incubation was performed for 15, 30, 60, 120 and 240 min, respectively. To investigate the effect of temperature on sporicidal properties, incubation at room temperature (RT) and at 70° C. was performed. After incubation, the plates were transferred to ice and suspensions were diluted 10- to 1000-fold in PBS. Then, 10 μL aliquots were spotted on LB agar plates for overnight culture at 37° C. and CFUs were determined. Cell survival, after exposure to the tested agent, was expressed as percent of control.\nFIG. 4 includes graphs showing decreased survival of CSA-13-treated B. subtilis spores. FIG. 4, panels A-C show decline in the survival of B. subtilis culture after incubation with various concentrations of CSA-13. FIG. 4, panels D-F show Level of metabolic activity observed in ceragenin (CSA)-treated spore samples exposed to appropriate environmental conditions when compared to untreated control. […]"}, "[2]": {"tested_on": "external layers of B. subtilis spores", "experiment": "Release of rhodamine 6G from the surface of spores", "type": "cell-based, Bacillus subtilis", "experimental": "The release of rhodamine 6G absorbed on the surface of Bacillus spores was evaluated using the Maesaki method (Maesaki, S., et al., Rhodamine 6G efflux for the detection of CDR1-overexpressing azole-resistant Candida albicans strains. J Antimicrob Chemother, 1999. 44(1): p. 27-31) with minor modifications. To stain cells with rhodamine 6G, the dye was added to a final concentration of 10 μM for 10 min. Non-absorbed dye was removed by centrifugation for 2 min at 10 000×g. Next, stained cells were washed and CSA-13 at 20 μg/mL was added. After incubation for 10, 30, 60 and 120 min, supernatant was collected by centrifugation and absorption at 527 nm was measured. The total concentration of rhodamine 6G released from the surface of spores was calculated using a standard concentration curve. The level of antibiotic-induced release was presented as the difference between the concentration of rhodamine 6G released from treated spores and control samples."}, "B. subtilis spores [3]": {"tested_on": "B. subtilis spores", "experiment": "Spore germination by optical density (OD600)", "type": "cell-based, Bacillus subtilis", "settings": "10 to 100 μg/mL, 1 h at RT in PBS, then LB broth, OD600 for 60 min (FIG. 5, panel A)", "experimental": "To further assess germination processes in antibiotic-treated samples, a spectrophotometric method was employed. Isolated spores were incubated at RT for 1 h in PBS with concentrations of CSA-13 ranging from 10 to 100 μg/mL. Then 100 μL of LB broth was added, and optical densities at 600 nm (OD600) were monitored, using a microplate reader (Synergy H1, BioTek, VT, USA), for 60 min. FIG. 5 includes graphs showing inhibitory effect of CSA-13 on B. subtilis spore germination assessed by the measurement of optical density for spore suspension with increasing concentrations of the antibiotic (10 μg/mL—white squares; 20 μg/mL—white diamonds; 50 μg/mL—black triangles; 100 μg/mL—black diamonds), when compared with control (CT—grey circles) (panel A). Release of rhodamine 6G from external layers of B. subtilis spores after treatment with 20 μg/ml of CSA-13 (black square) and vancomycin (VAN; grey square) (panel B)."}, "B. subtilis spores [4]": {"tested_on": "B. subtilis spores", "experiment": "Viability (CFU) assay of bacterial spores", "type": "cell-based, Bacillus subtilis ATCC 6051", "experimental": "(§2) This example studied the ability of a CSA compound (e.g., CSA-13) to kill sporulated bacterial, namely Bacillus subtilis ATCC 6051 spores. To prepare Bacillus subtilis ATCC 6051 spores, bacteria were grown on LB (Luria-Bertani) agar plates without antibiotics at 37° C. for 72 h. Bacteria were harvested, re-suspended in ice-cold phosphate buffered saline (PBS) solution and purified by triple centrifugation (12 000×g, 10 min, 4° C.). The spore suspension was heat treated (75° C., 15 min) to remove remaining vegetative cells, cooled, stored in water at 4° C. and protected from light until analysis. […] Zhang, P., P. Setlow, and Y. Li, Characterization of single heat-activated Bacillus spores using laser tweezers Raman spectroscopy. Opt Express, 2009. 17(19): p. 16480-91. All spores used in this work were free of vegetative cells (>98%), as determined by staining cells using Schaeffer and Fulton Spore Stain Kit (Sigma-Aldrich, St Louis, Mo., USA). Additionally, to confirm the formation of spores during preparation, purified samples were investigated using transmission electron microscopy (TEM, Tecnai G2 X-TWIN, FEI, USA).\nas §1\nFIG. 4 includes graphs showing decreased survival of CSA-13-treated B. subtilis spores. FIG. 4, panels A-C show decline in the survival of B. subtilis culture after incubation with various concentrations of CSA-13. FIG. 4, panels D-F show Level of metabolic activity observed in ceragenin (CSA)-treated spore samples exposed to appropriate environmental conditions when compared to untreated control. Samples were incubated at RT (panels A, D for vegetative form and panels B, E for spore form, respectively) and at 70° C. (panels C, F) for 15 (white squares), 30 (grey circles), 60 (black circles), 120 (white triangles) and 240 (grey diamonds) minutes. […]"}, "[5]": {"tested_on": "vegetative cells of B. subtilis", "experiment": "MTT assay of metabolic activity, vegetative cells", "type": "cell-based, Bacillus subtilis", "settings": "RT (FIG. 4, panel D)", "experimental": "(§3) As an additional confirmation of results, the presence of a metabolically active fraction of cells was investigated using MTT assay. After incubation of spores with various concentrations of CSA-13 in a non-growing medium (PBS), 20 μL of MTT solution (thiazolyl blue tetrazolium bromide, Sigma-Aldrich, St Louis, Mo., USA, 5 mg/mL) and 100 μL of LB medium broth were added. Incubation at 37° C. was continued for 8 h. Medium was removed, and 100 μL of dimethyl sulfoxide solution (DMSO) was added to dissolve the MTT precipitate. Cells were allowed to stand at room temperature (RT) for 10 min with shaking. Absorbance values were detected at a wavelength of 570 nm using a microplate spectrophotometer. Absorbance values obtained in control spores cultures (without a tested agent) were taken as 100%. As positive controls, 1 M HCl (for spore treatment at RT) and 70% ethanol (for spore treatment at 70° C.) were employed. The average of all the experiments was presented in comparison to the level of metabolic activity detected in non-treated B. subtilis suspension. Incubation of both vegetative cells and spores of B. subtilis was performed for 15, 30, 60, 120 and 240 min."}, "B. subtilis spores [6]": {"tested_on": "B. subtilis spores", "experiment": "MTT assay of metabolic activity, spores", "type": "cell-based, Bacillus subtilis", "settings": "LB broth 37° C. 8 h after treatment at RT or 70° C. (FIG. 4, panels E, F)", "experimental": "as §3, with “Incubation of both vegetative cells and spores of B. subtilis was performed for 15, 30, 60, 120 and 240 min.” left out\nThe results of viability testing largely correlate with data obtained in the MTT assay. […] The incubation of non-treated spores in LB broth at 37° C. results in reactivation of metabolic activity confirmed by increasing formazan reduction and subsequent rise in an absorbance value. […]"}, "[7]": {"tested_on": "membrane of vegetative and spore form of B. subtilis", "experiment": "Affinity of FITC-labeled CSA-13 to cell membranes (fluorimetric)", "type": "binding, Bacillus subtilis", "settings": "FITC-labeled CSA-13, 20 μg/mL", "experimental": "To assess the affinity/binding of CSA-13 for the outer bacterial membrane, CSA-13 was labeled with fluorescein isothiocyanate (FITC) and added to the suspensions of vegetative cell and spores, to a final concentration of 20 μg/mL. […] To evaluate whether affinity of CSA-13 is influenced by the surface electrical properties of cells, zeta potentials of vegetative bacteria and spore suspensions were assessed using Zetasizer Nano ZS (Malvern Instruments, United Kingdom). Bacterial and spore cultures were brought to OD600˜0.1 in PBS buffer (pH=7). To evaluate the effect of the ceragenin on zeta potential value, CSA-13 was added at the concentration of 100 μg/mL to the spore suspension, incubated for 15 minutes and transferred to a cuvette. Measurements were conducted at 25° C."}, "B. subtilis spores [8]": {"tested_on": "B. subtilis spores", "experiment": "Confocal Raman spectroscopy of single spores (CaDPA content)", "type": "cell-based, Bacillus subtilis", "settings": "50 μg/mL and 200 μg/mL", "experimental": "For Raman spectroscopy analyses, spores of B. subtilis were suspended in 100 μL of distilled water and treated with CSA-13 (50 μg/mL and 200 μg/mL) for 1 hour at RT and 70° C. Samples were transferred to polished calcium fluoride (CaF2) optical windows (Crystran, United Kingdom) and dried at 60° C. Raman spectra were recorded using a Renishaw InVia Raman spectrometer equipped with an optical confocal microscope, an air-cooled laser emitting at 532 nm, and an CCD detector thermoelectrically cooled to −70° C. A dry Leica N PLAN EPI (100×, NA 0.85) objective was used. The power of the laser at the sample position was ca. 1.5 mW. A sum of 20 scans with integration time of 20 seconds and a resolution of 0.5 cm^−1 was collected. The spectrometer was calibrated using the Raman scattering line generated by an internal silicon plate. A laser spot (diameter of ca. 760 nm) was focused on a single spore and then the measurement was performed. All spectra were smoothed and baseline corrected. Results from one representative experiment are provided.\nFIGS. 7 and 8 show Raman spectra collected from B. subtilis spores incubated at RT and at 70° C., respectively, with corresponding confocal microscopy images. Panels A1 and A2—control sample, panels B1 and B2—50 μg/mL of CSA-13, panels C1 and C2—200 μg/mL of CSA-13. Asterisks denote CaDPA bands well separated from bands of spore biocomponents. […]"}, "B. subtilis spores [9]": {"tested_on": "B. subtilis spores", "experiment": "TEM of treated spores (morphology, membrane permeability)", "type": "cell-based, Bacillus subtilis", "settings": "50 μg/mL and 200 μg/mL, 1 hour, RT and 70° C. (FIG. 3, panels C-F)", "experimental": "as §2\nTo visualize alterations in morphology and membrane permeability of treated spores, a suspension of spores (OD600˜0.5) in distilled water was treated with CSA-13 at concentrations of 50 μg/mL and 200 μg/mL and incubated for 1 hour at RT and 70° C. […]"}},
  "data": [
    {"smiles": "CCCCCCCCNCCC[C@@H](C)[C@H]1CC[C@H]2[C@@H]3[C@H](OCCCN)C[C@@H]4C[C@H](OCCCN)CC[C@]4(C)[C@H]3C[C@H](OCCCN)[C@]12C", "note": "[CSA-13]", "values": [
      {"measurement": "concentration at which all vegetative cells were killed", "setting": "[1]", "value": 15, "unit": "µg/mL"},
      {"measurement": "rhodamine 6G release compared with vancomycin", "setting": "[2]; 20 μg/mL of each", "value": "significantly higher than that of vancomycin"},
      {"measurement": "release of rhodamine 6G from spores", "setting": "[2]; 20 μg/mL, 10-120 min (FIG. 5, panel B)", "value": "resulted in the release of dye"},
      {"measurement": "effect on spore germination (OD600)", "setting": "B. subtilis spores [3]", "value": "strong interference in the germination"},
      {"measurement": "effect of elevated temperature on sporicidal activity", "setting": "B. subtilis spores [4]; 70° C. versus room temperature", "value": "elevated temperature significantly intensifies the activity"},
      {"measurement": "concentration killing bacterial spores", "setting": "B. subtilis spores [4]; 70° C., incubation 120 and 240 minutes", "value": 5, "unit": "µg/mL"},
      {"measurement": "concentration sufficient to inhibit the growth of spores", "setting": "B. subtilis spores [4]; 70° C., incubation 15 min (FIG. 4, panel C)", "value": 20, "unit": "µg/mL"},
      {"measurement": "concentration giving total inhibition of spore growth potential", "setting": "B. subtilis spores [4]; RT, regardless of incubation time (15-240 min) (FIG. 4, panel B)", "value": 100, "unit": "µg/mL"},
      {"measurement": "concentration at which vegetative cells showed no detectable metabolism", "setting": "[5]", "value": 20, "unit": "µg/mL"},
      {"measurement": "metabolic activity of treated spores after exposure to favorable conditions", "setting": "B. subtilis spores [6]", "value": "only a small fraction of spores was able to resume proper metabolic activity"},
      {"measurement": "affinity for the external layers of spores", "setting": "[7]", "value": "high affinity"},
      {"measurement": "affinity for spores versus vegetative form", "setting": "[7]; recorded 15 min (FIG. 6, panel A)", "value": "greater affinity for the spores than for the vegetative form of bacteria"},
      {"measurement": "percentage of CaDPA negative spores, 70° C. versus room temperature", "setting": "B. subtilis spores [8]; 1 hour (FIG. 8)", "value": "greater compared to sample treated at room temperature"},
      {"measurement": "number of CaDPA positive spores after treatment", "setting": "B. subtilis spores [8]; 1 hour, versus untreated", "value": "significant reduction of the number of CaDPA positive cells"},
      {"measurement": "change of spore structure in TEM micrographs", "setting": "B. subtilis spores [9]", "value": "disruption of spore membrane architecture"}
    ]}
  ]
}
